# Laboratory results from PubChem BioAssay AID1259407 (Chemical Carcinogenesis Research Information System (CCRIS), 2018).
# Calls of active or inactive are those of the source. No rule for the calls is given here.
# System: CCRIS mutagenicity, Ames/micronucleus/aberration tests
# Assay: CCRIS mutagenicity studies
smiles,measurement,setting,value
O=P1(N(CCCl)CCCl)NCCCO1 (stereo not drawn),mutagenic call,"End Point: IN VITRO CHROMOSOMAL ABERRATIONS, Test System: CHL/IU CELLS, Metabolic Activation: RAT, LIVER, S-9, PHENOBARBITAL AND 5,6-BENZOFLAVONE",active; positive (structural changes)
same,mutagenic call,"End Point: IN VITRO CHROMOSOMAL ABERRATIONS, Test System: HUMAN LYMPHOCYTES, Metabolic Activation: RAT LIVER S-9, AROCLOR 1254",active; positive
same,mutagenic call,"End Point: IN VITRO MICRONUCLEUS, Test System: BOVINE LYMPHOCYTES, Metabolic Activation: S-9 MIX, AROCLOR 1254",active; positive
same,mutagenic call,"End Point: IN VITRO MICRONUCLEUS, Test System: CHL/IU CELLS, Metabolic Activation: RAT, LIVER, S-9, PHENOBARBITAL AND 5,6-BENZOFLAVONE",active; positive
same,mutagenic call,"End Point: IN VITRO MICRONUCLEUS, Test System: CHO CELLS, Metabolic Activation: RAT, LIVER, S-9, AROCLOR 1254",active; positive
same,mutagenic call,"End Point: IN VIVO MICRONUCLEUS, Test System: BLOOD ERYTHROCYTES, Species: MOUSE, Strain/Sex: CD-1/MALE, Route: ORAL",active; positive
same,mutagenic call,"End Point: IN VIVO MICRONUCLEUS, Test System: BONE MARROW CELLS, Species: MOUSE, Strain/Sex: CD-1/MALE, Route: GAVAGE",active; positive
same,mutagenic call,"End Point: IN VIVO MICRONUCLEUS, Test System: BONE MARROW ERYTHROCYTES, Species: HAMSTER, Strain/Sex: SYRIAN/MALE, Route: INTRAPERITONEAL",active; positive
same,mutagenic call,"End Point: IN VIVO MICRONUCLEUS, Test System: BONE MARROW POLYCHROMATIC ERYTHROCYTES, Species: MOUSE, Strain/Sex: SWISS/MALE, Route: IP",active; positive
same,mutagenic call,"End Point: In vivo chromosomal aberrations, Test System: Bone marrow cells, Species: Rat, Strain/Sex: Wistar/Male, Route: Intraperitoneal injection","active; positive (structural changes: gaps, breaks). effect by 100 or 200 mg/kg alpha-li"
same,mutagenic call,"End Point: In vivo micronucleus, Test System: Bone marrow erythrocytes, Species: Mouse, Strain/Sex: NMRI/Male, Route: Intraperitoneal",active; positive (hawthorn extract significantly reduced micronucleated polychromatic er
same,mutagenic call,"End Point: In vivo micronucleus, Test System: Bone marrow erythrocytes, Species: Mouse, Strain/Sex: Swiss/Male, Route: Intraperitoneal",active; positive (pue or 4-nc showed dose-dependent protective effect against cyclophosp
same,mutagenic call,"End Point: In vivo micronucleus, Test System: Micronucleated hepatocytes, Species: Rat, Strain/Sex: F344/Male, Route: Oral",inactive; negative
same,mutagenic call,"End Point: In vivo micronucleus, Test System: Peripheral blood and bone marrow erythrocytes, Species: Dog, Strain/Sex: Beagle/Male and female, Route: Intravenous",active; positive. evaluations by flow cytometry and manual counting; multi-laboratory st
same,mutagenic call,"End Point: MICRONUCLEUS, Test System: BONE MARROW, Species: RAT, Strain/Sex: WISTAR, Route: INTRAPERITONEAL",active; positive
same,mutagenic call,"Test System: AMES SALMONELLA TYPHIMURIUM, Strain/Indicator: TA97, Metabolic Activation: NONE, Method: STANDARD PLATE",inactive; negative
same,mutagenic call,"Test System: AMES SALMONELLA TYPHIMURIUM, Strain/Indicator: TA97, Metabolic Activation: RAT, LIVER, S-9, PHENOBARBITAL AND ALPHA-NAPHTHOFLAVONE, Method: STANDARD PLATE",inactive; negative
same,mutagenic call,"Test System: AMES SALMONELLA TYPHIMURIUM, Strain/Indicator: TA98, Metabolic Activation: NONE, Method: PREINCUBATION",inactive; negative
same,mutagenic call,"Test System: AMES SALMONELLA TYPHIMURIUM, Strain/Indicator: TA98, Metabolic Activation: NONE, Method: SPIRAL ASSAY",inactive; negative
same,mutagenic call,"Test System: AMES SALMONELLA TYPHIMURIUM, Strain/Indicator: TA98, Metabolic Activation: NONE, Method: STANDARD PLATE",inactive; negative
same,mutagenic call,"Test System: AMES SALMONELLA TYPHIMURIUM, Strain/Indicator: TA98, Metabolic Activation: RAT, LIVER, S-9, AROCLOR 1254, Method: SPIRAL ASSAY",inactive; negative
same,mutagenic call,"Test System: AMES SALMONELLA TYPHIMURIUM, Strain/Indicator: TA98, Metabolic Activation: RAT, LIVER, S-9, PHENOBARBITAL AND ALPHA-NAPHTHOFLAVONE, Method: STANDARD PLATE",inactive; negative
same,mutagenic call,"Test System: AMES SALMONELLA TYPHIMURIUM, Strain/Indicator: TA98, Metabolic Activation: S-9, Method: PREINCUBATION",inactive; negative
same,mutagenic call,"Test System: AMES SALMONELLA TYPHIMURIUM, Strain/Indicator: TA98, Metabolic Activation: S-9, Method: STANDARD PLATE",inactive; negative
same,mutagenic call,"Test System: AMES SALMONELLA TYPHIMURIUM, Strain/Indicator: TA100, Metabolic Activation: MOUSE, LIVER, S-9, PHENOBARBITAL AND BETA-NAPHTHOFLAVONE, Method: STANDARD PLATE",active; positive
same,mutagenic call,"Test System: AMES SALMONELLA TYPHIMURIUM, Strain/Indicator: TA100, Metabolic Activation: MOUSE, LIVER, S-9, PHENOBARBITAL, BETA-NAPHTHOFLAVONE, ISOSAFROLE, ETHANOL, PREGNENOLONE AND 16ALPHA-CARBONITRILE, Method: STANDARD PLATE",active; positive
same,mutagenic call,"Test System: AMES SALMONELLA TYPHIMURIUM, Strain/Indicator: TA100, Metabolic Activation: NONE, Method: PREINCUBATION",inactive; negative
same,mutagenic call,"Test System: AMES SALMONELLA TYPHIMURIUM, Strain/Indicator: TA100, Metabolic Activation: NONE, Method: SPIRAL ASSAY",active; positive
same,mutagenic call,"Test System: AMES SALMONELLA TYPHIMURIUM, Strain/Indicator: TA100, Metabolic Activation: RAT, LIVER, PARENCHYMAL CELLS (CRYOPRESERVED), Method: PREINCUBATION",inactive; negative
same,mutagenic call,"Test System: AMES SALMONELLA TYPHIMURIUM, Strain/Indicator: TA100, Metabolic Activation: RAT, LIVER, PARENCHYMAL CELLS (FRESHLY ISOLATED OR STORED FOR 1 D), Method: PREINCUBATION",active; positive
same,mutagenic call,"Test System: AMES SALMONELLA TYPHIMURIUM, Strain/Indicator: TA100, Metabolic Activation: RAT, LIVER, S-9, AROCLOR 1254, Method: SPIRAL ASSAY",active; positive
same,mutagenic call,"Test System: AMES SALMONELLA TYPHIMURIUM, Strain/Indicator: TA100, Metabolic Activation: RAT, LIVER, S-9, AROCLOR 1254, Method: STANDARD PLATE",active; positive
same,mutagenic call,"Test System: AMES SALMONELLA TYPHIMURIUM, Strain/Indicator: TA100, Metabolic Activation: RAT, LIVER, S-9, PHENOBARBITAL AND ALPHA-NAPHTHOFLAVONE, Method: STANDARD PLATE",active; positive
